Measurements from EP4775036A2, “SYNERGISTIC FORMULATIONS FOR CONTROL AND REPELLENCY OF BITING ARTHROPODS” (Bedoukian Research, Inc., priority 2020, dated 2022).
“And” between values parts separate entries of the source, which are not always exact repeats. Equal entries are not always repeated.

What was measured:
Aedes aegypti = experiment: Laboratory screening, modified K & D chamber (Gupta Box), treated blood-filled membrane wells; assay type: in vivo; conditions: adjusted, relative to control
Procedure: A modified K & D chamber or "Gupta Box" was used to screen 4 compounds plus an untreated control, simultaneously. Five replicates of 250 adult female mosquitoes each were placed in clear plastic cages (Gupta boxes) with access to five warmed, blood-filled, membrane-covered wells. The mosquitoes used were Aedes aegypti. Membranes were treated with repellent dilutions or diluent only. Five replicates were tested, rotating positions within the chamber. Each replicate used a fresh batch of mosquitoes, blood and treated membranes. The number of mosquitoes probing each well was recorded at two minute intervals for 20 minutes. The total numbers of probes on each well were tallied at the end of the observation period and the average percentage repellency relative to the control was calculated for each formulation. To compare formulations from different tests, the control probes were adjusted to 100 for each test and the formula then applied to each formulation to adjust accordingly. For laboratory testing, additive repellency was determined by adding the adjusted percent repellency for each dose used in the combination treatment. This "Expected additive repellency" was then compared to the "actual repellency" seen when the combination was tested in the Gupta box.

Aedes aegypti mosquitoes = experiment: Arm in cage testing (Modified WHO - Nigel Hill protocol), dose response curves on human subjects, LDP line analysis; assay type: in vivo; conditions: for Index: ED50 comparison of LDP lines, lowest ED50 = 100; for RR: ED50 relative to the line with the lowest ED50
Procedure: A Modified WHO - Nigel Hill protocol was used for Dose Response curve generation. Three concurrent repetitions were conducted with 4 subjects (2 male, 2 female). Approximately 60 non blood-fed, female Aedes aegypti mosquitoes were placed in a 12"X12"X12" (28316.85 cm^3) plexi and screen cage.
Arms were inserted into the first cage for 30 seconds, with number of landings (with intent to bite) recorded at the end of the time interval. The same procedure was used for the 2nd and 3rd cage in succession. Control arm was inserted first, followed by the opposite arm treated with ethanol only (as a treatment control). The 'treatment arm' is then treated with dose 1 and inserted, then dose 2, dose 3, and so on. After complete protection was achieved, control arm was reinserted to verify continued activity.
Percent repellency was calculated by utilizing the formula [{(C-T)/C}*100]. Where C = the number of mosquitoes landing with intent to bite on the ethanol only treated arm, and T = the number of mosquitoes landing with intent to bite on the 'repellent' treated arm. LDP line® software (Bakr, E 2007) was used to determine ED50 (effective dose to repel 50%) and compare materials.
Following the Definition of Synergy (the interaction or cooperation of two or more organizations, substances, or other agents to produce a combined effect greater than the sum of their separate effects), an 'additive measure' was used to determine synergy in the laboratory testing, as well as in the human testing. […] Significance was determined by the use of 95% confidence intervals.
For human testing, the LDP Line software was used to determine "additive repellency" differences.

[1] = 0.5% of the compound alone on membrane
[2] = 1% of the compound alone on membrane
[3] = DEET Combinations, calculations based on DEET dose
[4] = human arm in cage, DEET dose, DEET alone or in the combination (calculations based on DEET dosage)
[5] = human arm in cage, compound alone
[6] = PMD Combinations, calculations based on PMD dose
[7] = human arm in cage, PMD dose, PMD alone or in the combination (calculations based on PMD dosage)

CCN(CC)C(=O)c1cccc(C)c1 [DEET, N,N-Diethyl-m-toluamide]
percent repellency (Aedes aegypti; [1]): 29.55% | percent repellency (Aedes aegypti; [2]): 52.9% | ED90 (%AI) (Aedes aegypti mosquitoes; [3]): 1.443 %AI | Index (Aedes aegypti mosquitoes; [3]): 10.32 | RR (Aedes aegypti mosquitoes; [3]): 9.69 | % Repelled (Aedes aegypti mosquitoes; DEET alone at Dose 0.0351 % Active (its ED25)): 25% | ED25, Dose (% DEET) (Aedes aegypti mosquitoes; [4]): 0.035 % DEET and 0.0351 % DEET | ED50, Dose (% DEET) (Aedes aegypti mosquitoes; [4]): 0.1263 % DEET and 0.126 % DEET | ED75, Dose (% DEET) (Aedes aegypti mosquitoes; [4]): 0.4552 % DEET | ED90, Dose (% DEET) (Aedes aegypti mosquitoes; [4]): 1.4431 % DEET | ED95, Dose (% DEET) (Aedes aegypti mosquitoes; [4]): 2.8783 % DEET

CC(O)C(=O)O (centres unmarked) [Lactic Acid, Lactic acid]
% Repelled (Aedes aegypti mosquitoes; Lactic Acid alone at Dose 2.7938 % Active (its ED25)): 25% | ED25, Dose (% Lactic Acid) (Aedes aegypti mosquitoes; [5]): 2.794 % Lactic Acid | ED50, Dose (% Lactic Acid) (Aedes aegypti mosquitoes; [5]): 6.143 % Lactic Acid | ED75, Dose (% Lactic Acid) (Aedes aegypti mosquitoes; [5]): 13.51 % Lactic Acid | ED90, Dose (% Lactic Acid) (Aedes aegypti mosquitoes; [5]): 27.45 % Lactic Acid | ED95, Dose (% Lactic Acid) (Aedes aegypti mosquitoes; [5]): 41.96 % Lactic Acid

CCCCCCCCC1CCC(=O)O1 (centres unmarked) [Gamma Dodecalactone, gamma-dodecalactone]
% Repelled (Aedes aegypti mosquitoes; Gamma Dodecalactone alone at Dose 0.4177 % Active (its ED25)): 25% | ED25, Dose (% γ Dodecalactone) (Aedes aegypti mosquitoes; [5]): 0.4177 % γ Dodecalactone | ED50, Dose (% γ Dodecalactone) (Aedes aegypti mosquitoes; [5]): 1.8022 % γ Dodecalactone | ED75, Dose (% γ Dodecalactone) (Aedes aegypti mosquitoes; [5]): 7.7764 % γ Dodecalactone | ED90, Dose (% γ Dodecalactone) (Aedes aegypti mosquitoes; [5]): 28.994 % γ Dodecalactone | ED95, Dose (% γ Dodecalactone) (Aedes aegypti mosquitoes; [5]): 63.726 % γ Dodecalactone

CC1CCC(C(C)(C)O)C(O)C1 (centres unmarked) [PMD, para-menthane-3,8-diol]
percent repellency (Aedes aegypti; [2]): 26.35% and 26.4% | percent repellency (Aedes aegypti; 1.5% of the compound alone on membrane): 34.6% | ED90 (%AI) (Aedes aegypti mosquitoes; [6]): 3.846 %AI | Index (Aedes aegypti mosquitoes; [6]): 4.36 | RR (Aedes aegypti mosquitoes; [6]): 22.94 | % Repelled (Aedes aegypti mosquitoes; PMD alone at Dose 0.1275 % Active (its ED25)): 25% | ED25, Dose (% PMD) (Aedes aegypti mosquitoes; [7]): 0.128 % PMD and 0.1275 % PMD | ED50, Dose (% PMD) (Aedes aegypti mosquitoes; [7]): 0.4128 % PMD and 0.413 % PMD | ED75, Dose (% PMD) (Aedes aegypti mosquitoes; [7]): 1.3362 % PMD | ED90, Dose (% PMD) (Aedes aegypti mosquitoes; [7]): 3.8464 % PMD | ED95, Dose (% PMD) (Aedes aegypti mosquitoes; [7]): 7.2415 % PMD

CC(=O)CCC=C(C)CCC=C(C)C [Geranyl Acetone, 6,10-dimethyl-5,9-undecadien-2-one]
percent repellency (Aedes aegypti; [1]): 26.7% and 26.69% | % Repelled (Aedes aegypti mosquitoes; Geranyl Acetone alone at Dose 0.736 % Active (its ED25)): 25% | ED25, Dose (% Geranyl Acetone) (Aedes aegypti mosquitoes; [5]): 0.736 % Geranyl Acetone | ED50, Dose (% Geranyl Acetone) (Aedes aegypti mosquitoes; [5]): 2.831 % Geranyl Acetone | ED75, Dose (% Geranyl Acetone) (Aedes aegypti mosquitoes; [5]): 10.889 % Geranyl Acetone | ED90, Dose (% Geranyl Acetone) (Aedes aegypti mosquitoes; [5]): 36.608 % Geranyl Acetone | ED95, Dose (% Geranyl Acetone) (Aedes aegypti mosquitoes; [5]): 75.631 % Geranyl Acetone
